From US20150004134A1, “TREATMENT OF CANCER WITH HETEROCYCLIC INHIBITORS OF GLUTAMINASE” (Calithera Biosciences, Inc., priority 2012, published 2015)
Read-outs that look alike come from different tables or passages of the source.

What was measured:
P493-6 (myc "on") cells = assay: Cell Proliferation Assay; type: cell-based; conditions: P493-6, 72 h
Method in brief: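 Read-out: either Cell Titer Glo or Guava Viacount flow analysis after 72 h compound treatment of myc-on P493-6 cells (10,000/well, RPMI with 10% FBS) at 37 °C. DMSO held at 0.5% final.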

[1] = biological target: T1, recombinant form of Glutaminase 1 (GAC) (Homo sapiens, UniProt O94925); assay: Recombinant Enzyme Assay (no preincubation); type: biochemical; conditions: read-out: GAC Delta N2 IC50 no preinc;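 also: GDH-coupled GAC activity read as absorbance at 340 nm in kinetic mode over 15 min at 20 °C, slopes compared with a DMSO-only control, lower slope means inhibition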
T1 sequence (O94925 137-598 isoform O94925-3 limits assumed): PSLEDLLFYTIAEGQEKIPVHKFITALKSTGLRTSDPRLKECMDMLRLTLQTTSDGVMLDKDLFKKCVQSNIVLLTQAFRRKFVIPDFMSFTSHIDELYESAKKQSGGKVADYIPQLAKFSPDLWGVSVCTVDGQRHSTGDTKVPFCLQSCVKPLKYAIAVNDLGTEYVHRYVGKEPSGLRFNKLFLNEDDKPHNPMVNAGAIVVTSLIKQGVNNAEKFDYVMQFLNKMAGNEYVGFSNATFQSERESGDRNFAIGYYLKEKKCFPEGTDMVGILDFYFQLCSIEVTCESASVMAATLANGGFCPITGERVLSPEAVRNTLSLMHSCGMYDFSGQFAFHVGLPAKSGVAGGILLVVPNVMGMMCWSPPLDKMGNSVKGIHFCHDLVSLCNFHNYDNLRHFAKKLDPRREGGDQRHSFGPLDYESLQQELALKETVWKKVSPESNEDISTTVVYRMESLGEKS
Protocol: Compounds were assessed for their ability to inhibit the enzymatic activity of a recombinant form of Glutaminase 1 (GAC) using a biochemical assay that couples the production of glutamate (liberated by GAC) to glutamate dehydrogenase (GDH) and measuring the change in absorbance for the reduction of NAD^+ to NADH. […] Enzymatic reaction was started with the addition of 50 μL of enzyme solution (50 mM Tris-HCl pH 8.0, 0.2 mM EDTA, 150 mM K2HPO4, 0.1 mg/ml BSA, 1 mM DTT, 10 ppm antifoam, 4 units/ml GDH, 4 mM adenosine diphosphate, and 4 nM GAC) and read in a Molecular Devices M5 plate reader at 20° C. The plate reader was configured to read absorbance (λ=340 nm) in kinetic mode for 15 minutes. Data was recorded as milli-absorbance units per minute and slopes were compared to a control compound and a DMSO-only control on the same plate. Compounds with slopes less than the DMSO control were considered inhibitors and plate variability was assessed using the control compound.

[2] = biological target: T1, recombinant form of Glutaminase 1 (GAC); assay: Recombinant Enzyme Assay - Time Dependence (60 min preincubation); type: biochemical
Method in brief: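 Enzyme and compound preincubated 60 min at 20° C; reaction started with substrate buffer (50 mM Tris-HCl pH 8.0, 150 mM K2HPO4, 1 mM DTT, 20 mM L-glutamine, 2 mM NAD^+). NADH formation followed at 340 nm in kinetic mode for 15 min at 20° C; slopes (mAU/min) compared with DMSO and control-compound wells.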

[3] = read-out: Cell prolif P493 72 h IC50, P493 cells, 72 h
[4] = read-out: Cell prolif P493 72 h IC50, P493-6 cells, 72 h
[5] = read-out: GAC Delta N2 IC50 60 min preinc

IC50 [2] [µM]	SMILES	IC50 (P493-6 (myc "on") cells; [3]) [µM]	IC50 [1] [µM]	IC50 (P493-6 (myc "on") cells; [4]) [µM]	IC50 [2, 5] [µM]
	COc1ccc(CC(=O)Nc2nnc(CCCCc3nnc(NC(=O)Cc4ccc(OC)cc4)s3)s2)cc1 [Compound 163]	> 50	0.13		
	Nc1cccc(CC(=O)Nc2nnc(CCCCc3nnc(NC(=O)Cc4cccc(N)c4)s3)s2)c1 [Compound 329]	0.45	0.17		
	O=C(CCCCN1CCOCC1)OCN(C(=O)Cc1ccccc1)c1nnc(CCSCCc2nnc(N(COC(=O)OCCCN3CCOCC3)C(=O)Cc3ccccc3)s2)s1 [Compound 28]	1	> 50		
	O=C(Nc1nnc(CCSCCc2nnc(NC(=O)C(CO)c3ccccc3)s2)s1)C(CO)c1ccccc1 (stereo not shown) [Compound 24]	2.3	0.51		
	O=C(Cc1ccccc1)Nc1ccc(CCCCc2nnc(NC(=O)C(O)c3cc(F)cc(F)c3)s2)nn1 (stereo not shown) [Compound 351]	0.049	0.11		
	CC(=O)O[C@@H](C(=O)Nc1nnc(CCSCc2nnc(NC(=O)[C@H](OC(C)=O)c3ccccc3)s2)s1)c1ccccc1 [Compound 238]		13		
	O=C(Cc1ccccc1)Nc1ccc(CCCCc2nnc(NC(=O)Cc3cccc(O)c3)s2)nn1 [Compound 337]	0.021	0.073		
	COc1cccc(CC(=O)Nc2nnc(CCSCc3nnc(NC(=O)Cc4cccc(OC)c4)s3)s2)c1 [Compound 250]	0.14	0.12		
0.004	CC(NC(=O)CC(F)(F)F)c1cccc(CC(=O)Nc2ccc(CCCCc3nnc(NC(=O)Cc4ccccc4)s3)nn2)c1 (stereo not shown) [Compound 624]			0.009	
	CN(Cc1cccc(CC(=O)Nc2nnc(CCCCc3ccc(NC(=O)Cc4ccccc4)nn3)s2)c1)C(=O)Cc1ccccc1 [Compound 444]			0.008	0.003
	CC(C)CNC(=O)Cc1cccc(CC(=O)Nc2nnc(CCCCc3ccc(NC(=O)Cc4ccccc4)nn3)s2)c1 [Compound 470]			0.009	0.003
	CC(C)(C)NC(=O)Cc1cccc(CC(=O)Nc2ccc(CCCCc3nnc(NC(=O)Cc4ccccc4)s3)nn2)c1 [Compound 542]			0.043	0.004
	O=C(CN1CCOCC1)Nc1cccc(CC(=O)Nc2nnc(CCCCc3ccc(NC(=O)Cc4ccccc4)nn3)s2)c1 [Compound 440]			0.031	0.008
	O=C(O)Cc1cccc(CC(=O)Nc2nnc(CCCCc3ccc(NC(=O)Cc4ccccc4)nn3)s2)c1 [Compound 465]			0.92	0.006
	CCNC(=O)NCc1cccc(CC(=O)Nc2nnc(CCCCc3ccc(NC(=O)Cc4ccccc4)nn3)s2)c1 [Compound 453]			0.015	0.003
	CC(=O)NCc1cccc(CC(=O)Nc2nnc(CCCCc3ccc(NC(=O)Cc4ccccc4)nn3)s2)c1 [Compound 431]			0.026	0.007
	CS(=O)(=O)NCc1cccc(CC(=O)Nc2nnc(CCCCc3ccc(NC(=O)Cc4ccccc4)nn3)s2)c1 [Compound 452]			0.049	0.004
	CC(C)(C)OC(=O)N1Cc2cccc(CC(=O)Nc3ccc(CCCCc4nnc(NC(=O)Cc5cccc(OC(F)(F)F)c5)s4)nn3)c2C1 [Compound 612]			0.1	0.065
	CC[C@@](O)(C(=O)Nc1nnc(CCCCc2nnc(NC(=O)[C@](O)(CC)c3ccccc3)s2)s1)c1ccccc1 [Compound 144]		> 20		
	CC(C)(C)OC(=O)NCc1ccc(CC(=O)Nc2nnc(CCCCc3ccc(NC(=O)Cc4ccccc4)nn3)s2)cc1 [Compound 401]			0.011	0.005
	COC(=O)NCc1cccc(CC(=O)Nc2ccc(CCCCc3nnc(NC(=O)Cc4cccc(CNC(=O)OC)c4)s3)nn2)c1 [Compound 573]			0.015	0.004
	CCNC(=O)OC(C)c1cccc(CC(=O)Nc2ccc(CCCCc3nnc(NC(=O)C(C)c4ccccc4)s3)nn2)c1 (stereo not shown) [Compound 594]			0.05	0.007
	O=C(Cc1ccccc1)Nc1ccc(CCCCc2nnc(NC(=O)Cc3cccc(CC(=O)N4CCC4)c3)s2)nn1 [Compound 487]			0.042	0.005
	CCOC(=O)NC(C)c1cccc(CC(=O)Nc2ccc(CCCCc3nnc(NC(=O)C(C)c4ccccc4)s3)nn2)c1 (stereo not shown) [Compound 602]			0.036	0.006
	CC(C)(C)OC(=O)NCCc1cccc(CC(=O)Nc2nnc(CCCCc3ccc(NC(=O)Cc4ccccc4)nn3)s2)c1 [Compound 429]			0.007	0.004

IC50 [2] [µM]	SMILES	IC50 (P493-6 (myc "on") cells; [3]) [µM]	IC50 [1] [µM]	IC50 (P493-6 (myc "on") cells; [4]) [µM]	IC50 [2, 5] [µM]
	O=C(Cc1ccccc1)Nc1ccc(CCCCc2nnc(NC(=O)Cc3c(F)cccc3F)s2)nn1 [Compound 443]			0.1	0.011
	CCOC(=O)Cc1cccc(CC(=O)Nc2ccc(CCCCc3nnc(NC(=O)Cc4ccccc4)s3)nn2)c1 [Compound 501]			0.069	0.004
	CC(C)(C)OC(=O)NCc1cccc(CC(=O)Nc2nnc(CCCCc3ccc(NC(=O)C(C)(C)C)nn3)s2)c1 [Compound 510]			0.094	0.022
	COc1cccc(C(OC(=O)CCN2CCOCC2)C(=O)Nc2nnc(CCCCc3ccc(NC(=O)Cc4ccccc4)nn3)s2)c1 (stereo not shown) [Compound 404]			0.022	0.06
	CC(C)(C)OC(=O)Nc1ccc(CC(=O)Nc2nnc(CCCCc3ccc(NC(=O)Cc4ccccc4)nn3)s2)cc1 [Compound 400]			0.053	0.015
	CCNC(=O)OC(C)c1cccc(CC(=O)Nc2nnc(CCCCc3ccc(NC(=O)Cc4ccccc4)nn3)s2)c1 (stereo not shown) [Compound 592]			0.011	0.004
0.003	CCCCNC(=O)Cc1cccc(CC(=O)Nc2ccc(CCCCc3nnc(NC(=O)Cc4ccccc4)s3)nn2)c1 [Compound 516]			0.028	
	CS(=O)(=O)Cc1cccc(CC(=O)Nc2ccc(CCCCc3nnc(NC(=O)Cc4ccccc4)s3)nn2)c1 [Compound 635]			0.03	0.005
	O=C(Cc1ccccc1)Nc1ccc(CCCCc2nnc(NC(=O)Cc3ccccc3Cl)s2)nn1 [Compound 522]			0.06	0.023
	CC(=O)NC(C)c1cccc(CC(=O)Nc2ccc(CCCCc3nnc(NC(=O)Cc4ccccc4)s3)nn2)c1 (stereo not shown) [Compound 590]			0.087	0.007
	COc1cccc(CNC(=O)Nc2nnc(CCCCc3nnc(NC(=O)Cc4ccccc4)s3)s2)c1 [Compound 416]			0.35	0.055
	O=C(Cc1ccccc1)Nc1ccc(CCCCc2nnc(NC(=O)Cc3ccc(F)c(Cl)c3)s2)nn1 [Compound 549]			0.045	0.006
	CC(C)CC(=O)NCc1cccc(CC(=O)Nc2nnc(CCCCc3ccc(NC(=O)Cc4ccccc4)nn3)s2)c1 [Compound 433]			0.007	0.002
	O=C(Cc1ccccc1)Nc1ccc(CCCCc2nnc(NC(=O)Cc3cccc(OC(CO)CO)c3)s2)nn1 [Compound 505]			0.24	0.008
	CC(C(=O)Nc1nnc(CCCCc2ccc(NC(=O)Cc3ccccc3)nn2)s1)c1cccc(C(=O)c2ccccc2)c1 (stereo not shown) [Compound 587]			0.057	0.007
	O=C(Nc1nnc(CCSCCc2nnc(NC(=O)[C@H]3C[C@@H]3c3ccccc3)s2)s1)C1C[C@@H]1c1ccccc1 (stereo partly shown) [Compound 91]		> 20		
	CC(C)(C)OC(=O)NCc1cccc(CC(=O)Nc2nnc(CCCCc3ccc(N)nn3)s2)c1 [Compound 412]			0.11	0.028
	CN1CCN(C(=O)c2cccc(CC(=O)Nc3nnc(CCCCc4ccc(NC(=O)Cc5ccccc5)nn4)s3)c2)CC1 [Compound 490]			0.25	0.011
	NCc1ccccc1CC(=O)Nc1nnc(CCCCc2ccc(NC(=O)Cc3ccccc3)nn2)s1 [Compound 466]			1.3	0.051
	O=C(Cc1ccccc1)Nc1ccc(CCCCc2nnc(NC(=O)Cc3cccc(Oc4ccccc4)c3)s2)nn1 [Compound 450]			0.042	0.006
	CC(O)(CC(=O)NCc1cccc(CC(=O)Nc2nnc(CCCCc3ccc(NC(=O)Cc4ccccc4)nn3)s2)c1)C(F)(F)F (stereo not shown) [Compound 579]			0.009	0.004
	CC(NC(=O)C(F)(F)F)c1cccc(CC(=O)Nc2ccc(CCCCc3nnc(NC(=O)Cc4ccccc4)s3)nn2)c1 (stereo not shown) [Compound 622]			0.01	0.004
	CC(=O)Nc1ccc(CCCCc2nnc(NC(=O)Cc3cccc(CNC(=O)c4ccccc4)c3)s2)nn1 [Compound 460]			0.031	0.005
0.005	CCC(=O)NC(C)c1cccc(CC(=O)Nc2ccc(CCCCc3nnc(NC(=O)Cc4ccccc4)s3)nn2)c1 (stereo not shown) [Compound 621]			0.02	
	CC(O)c1cccc(CC(=O)Nc2nnc(CCCCc3ccc(NC(=O)Cc4ccccc4)nn3)s2)c1 (stereo not shown) [Compound 593]			0.033	0.005
